Data set [1] in a line: NMR-based detection of small molecule aggregators. Format: physicochemical. As to conditions: 20 mM potassium phosphate buffer, pH 6.2, 10% D2O. The procedure: To detect line broadening, standard ^1H-NMR spectra were acquired. T2 decay curves were generated by measuring the CPMG NMR spectra of the molecules, performed as described above. The number of echo cycles corresponds to the decay time. The intensity of the aromatic peaks at the indicated decay times were measured and normalized to a maximum intensity of 1 at the 10 ms decay time. The curves were fitted to a one phase decay model using Prism software (Graphpad). Excitation sculpting was used for solvent suppression. Samples for both analyses were prepared in 20 mM potassium phosphate buffer, pH 6.2, 10% (v/v) D2O. Results of these measurements are described in FIGS. 12-13.

Data set [2] is described as follows: Dynamic light scattering. The class given is physicochemical. As to conditions: 20 mM potassium phosphate buffer, pH 6.2. The procedure: Samples were measured at room temperature on a DynaPro-99 instrument with a 90° detector angle using a 10 second acquisition time per measurement. Compounds were diluted from a 100 mM stock in 20 mM potassium phosphate buffer, pH 6.2 with 1% DMSO final concentration.

Data set [3] concerns the target T1, BAX (Homo sapiens, UniProt Q07812).
T1 construct: Recombinant, full-length BAX was expressed in BL21 (DE3) E. coli using the pTYB1 vector; made in house; host or cells: E. coli BL21 (DE3)
The data set can be described thus: Liposomal release assay (ANTS/DPX). The class given is biochemical.
Procedure: Briefly, a lipid mixture containing a 48:28:10:10:4 molar ratio of phosphatidylcholine, phosphatidylethanolamine, phosphatidylinositol, dioleoyl phosphatidylserine, and tetraoleolyl cardiolipin (Avanti Polar Lipids) was generated in chloroform. Lipid films were formed by evaporation of solvent, initially under nitrogen gas and then by overnight vacuum, followed by storage at −80° C. under nitrogen. […] Liposomes were formed by 5 freeze/thaw cycles followed by extrusion through a 100 nm polycarbonate membrane and purified using a Sepharose CL-2B size exclusion column. […] ANTS/DPX release was monitored over time at room temperature in a spectrofluorometer (Tecan Infinite M1000) using an excitation wavelength of 355 nm, an emission wavelength of 540 nm, and a bandwidth of 20 nm. Maximal release was determined by the addition of Triton X-100 to a final concentration of 0.2% (v/v). Percent release was calculated according to Equation 1 shown below, where F is the observed release, and F0 and F100 are baseline and maximal fluorescence, respectively.
First, baseline fluorescence with liposomes and compound alone was read, followed by the addition of BAX to evaluate for direct activation; then, BIM SAHBA2 was added to this mixture and the effect of the combination monitored, and compared with the triggering activity of BIM SAHBA2 and BAX in the absence of compound.

The target in data set [4] is T2, recombinant, full length BAX (Homo sapiens, UniProt Q07812).
T2 construct: made in house; host or cells: E. coli BL21 (DE3)
In words: Fluorescence polarization assay (direct and competitive). The class given is binding. As to conditions: FITC-peptide 25 nM, BAX 250 nM. The procedure:
FITC-peptide (25 nM) was incubated with a serial dilution of recombinant, full length BAX in binding buffer (20 mM Potassium phosphate, pH 6.2). For competitive FP, FITC-peptide (25 nM) was mixed with a fixed concentration of BAX (250 nM) and incubated with a serial dilution of acetylated peptide or a compound described herein. Fluorescence polarization was measured at equilibrium using a SpectraMax M5 microplate reader. Nonlinear regression analysis of dose-response curves was performed using Prism software 7 (GraphPad).
For orientation: Fluorescence polarisation rises when a labelled molecule tumbles more slowly, as on binding a larger partner.

T1 sequence (Q07812 whole entry): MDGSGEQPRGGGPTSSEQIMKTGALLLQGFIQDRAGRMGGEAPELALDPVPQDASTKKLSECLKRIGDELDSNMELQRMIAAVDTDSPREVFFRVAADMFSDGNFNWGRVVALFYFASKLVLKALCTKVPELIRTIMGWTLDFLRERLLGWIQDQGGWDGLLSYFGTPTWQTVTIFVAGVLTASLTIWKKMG
T2 sequence (Q07812 whole entry): as above

As to `Nc1ccc(Nc2ccccc2)cc1` [4-ADPA], the “T2 decay (aggregation)” value in data set [1] is listed as “rapid T2 decay”. Moreover, in data set [2], the “light scattering (aggregation in solution)” value (shortened to “light scattering”) is listed as “dose-dependent increase in light scattering”.
For `Oc1ccc(Oc2ccccc2)cc1` [BIF-44], in data set [1], the “T2 decay (aggregation)” value is listed as “does not exhibit rapid or dose dependent decrease in T2 decay” and the “line broadening in 1H-NMR spectrum (aggregation)” value was “does not exhibit line broadening”. The “light scattering” value in data set [2] is listed as “does not aggregate in solution”.
With `O=C1C(I)=CC(=C(c2cc(I)c(O)c(I)c2)c2ccccc2C(=O)O)C=C1I` [I4PTH], the “light scattering” value in data set [2] is recorded as “dose-dependent increase in light scattering”.
Take “BIM SAHBA2: stapled BIM BH3 helix (aa 145-164), Ac-EIWIAQELRXIGDXFNAYYA-CONH2, X=stapling amino acid; direct BAX activator positive control”: the “maximal BAX-mediated liposomal release” value in data set [3] (BIM SAHBA2 alone with BAX) is 50%. Besides, the “direct BAX activation in liposomal release” value in data set [3] (single agent with BAX) was “induced time-responsive liposomal release”. Moreover, the “competition with FITC-BIM SAHBA2 for BAX interaction” value in data set [4] is “dose-responsively competed”.

Values taken from patent publication US20200172530A1, “Small Molecule Sensitization of BAX Activation for Induction of Cell Death” (Dana-Farber Cancer Institute, Inc., priority 2017, published 2020).
